The results in this text go back to patent US6903124B2, “Organic acid salt of amlodipine” (CJ Corp, priority 2002, dated 2005).

Common to all, as to format: physicochemical
Series [1] is described as follows: Test for hygroscopicity: water content (K. F. water %) at 25° C. under various humidity conditions. The following applies: for water content (K. F. water %): 25° C.
The nature of series [2]: Chemical stability in aqueous state, 25° C., 4 weeks in complete darkness, HPLC. The following applies: distilled water. As for the experimental part: (§1) HPLC Analysis Conditions: • Detector: UV Absorbance (at 237 nm) • Column: Octadesyl silica gel C18 (4.6 mm×150 mm, 5 μm) • Mobile Phase: Potassium dihydrogenphosphate monobasic (0.03M): methanol=4:6 (v/v) • Flow Rate: 1.5 ml/min
The resulting aqueous solutions were stored at 25° C. for 4 weeks in complete darkness, after which a measurement was made of the contents of the salts with resort to HPLC under the same conditions as in the solid state.

Series [3] is described as follows: physchem. The settings on record: 37 °C.
A short description of series [4]: Chemical stability in solid state, accelerated test at 60° C., HPLC content. As for the experimental part:
as §1

Turning to `CCOC(=O)C1=C(COCCN)NC(C)=C(C(=O)OC)C1c1ccccc1Cl.CCS(=O)(=O)O` (stereo not drawn) [Ethanesulfonate, amlodipine ethanesulfonate], the “water content (K. F. water %)” value is 0.08% in series [1] (25% RH, 1 week storage); 0.09% in series [1] (60% RH, 1 week storage); 0.13% in series [1] (75% RH, 1 week storage); 0.15% in series [1] (95% RH, 1 week storage); 0.12% in series [1] (Initial). This molecule yielded a hygroscopicity in series [1] (relative humidity 95%) not above 0.5%. For the same molecule, the “stability in aqueous state (decomposition products, content change)” value in series [2] is given as “neither decomposition products nor content change is found”. For the same molecule, the solubility (commonly the concentration that dissolves in the medium under given conditions) is more than 200 mg/mL in series [3] (pH 2, aqueous buffer); more than 200 mg/mL in series [3] (pH 4, aqueous buffer); more than 200 mg/mL in series [3] (pH 6, aqueous buffer); more than 200 mg/mL in series [3] (pH 7, aqueous buffer); more than 200 mg/mL in series [3] (pH 7.4, aqueous buffer); more than 200 mg/mL in series [3] (pH 8, aqueous buffer). This molecule showed a solubility in series [3] (water) of more than 200 mg/mL. The “change in content, accelerated test” value in series [4] is recorded as “virtually no changes”. For the same molecule, the HPLC content in series [4] (1 week) amounted to 99.6%; in series [4] (2 weeks), 99.6%; in series [4] (3 weeks), 99.5%; in series [4] (initial), 99.7%.

As to `CCOC(=O)C1=C(COCCN)NC(C)=C(C(=O)OC)C1c1ccccc1Cl` (stereo not drawn) [Besylate, amlodipine besylate, reference compound], the “water content (K. F. water %)” value came out at 0.10% in series [1] (25% RH, 1 week storage); 0.09% in series [1] (60% RH, 1 week storage); 0.15% in series [1] (75% RH, 1 week storage); 0.17% in series [1] (95% RH, 1 week storage); 0.14% in series [1] (Initial). In addition, the “stability in aqueous state (decomposition products, content change)” value in series [2] is recorded as “neither decomposition products nor content change is found”. The “change in content, accelerated test” value in series [4] is “virtually no changes”. The HPLC content in series [4] (1 week) was 99.6%; in series [4] (2 weeks), 99.4%; in series [4] (3 weeks) it was 99.2%; in series [4] (initial), 99.6%.
